Test results published in patent US20260053812A1, “METHODS OF TREATING HYPERTENSION WITH A COMBINATION OF AN ALDOSTERONE SYNTHASE INHIBITOR AND A DIURETIC” (Mineralys Therapeutics, Inc., priority 2022, published 2026).

Test: Adverse events (TEAEs, SAEs, AESI; Safety Analysis Set)
Text: In analyses performed on the Safety Analysis Set, subjects will be analyzed according to their actual treatment received.

CC(=O)N[C@H]1CC[C@H](NC(=O)CN2CCN(c3nncc(-c4ccc(C)cc4)n3)CC2)CC1 [Compound A HBr]
(4.5) %: On-treatment TEAE, Cardiac disorders, % (Part 1, 12.5 mg BID (N = 22)) | On-treatment TEAE, General disorders and administration site conditions, Mild, % (Part 1, 12.5 mg BID (N = 22)) | On-treatment TEAE, Hyperkalaemia, Moderate, % (Part 1, 12.5 mg BID (N = 22)) | On-treatment TEAE, Infections and infestations, % (Part 1, 12.5 mg BID (N = 22)) | On-treatment TEAE, Infections and infestations, Moderate, % (Part 1, 12.5 mg BID (N = 22)) | On-treatment TEAE, Investigations, Moderate, % (Part 1, 12.5 mg BID (N = 22)) | On-treatment TEAE, Metabolism and nutrition disorders, Moderate, % (Part 1, 12.5 mg BID (N = 22)) | On-treatment TEAE, Nervous system disorders, % (Part 1, 12.5 mg BID (N = 22)) | On-treatment TEAE, Nervous system disorders, Mild, % (Part 1, 12.5 mg BID (N = 22)) | On-treatment TEAE, Orthostatic hypotension, % (Part 1, 12.5 mg BID (N = 22)) | On-treatment TEAE, Orthostatic hypotension, Mild, % (Part 1, 12.5 mg BID (N = 22)) | On-treatment TEAE, Psychiatric disorders, % (Part 1, 12.5 mg BID (N = 22)) | On-treatment TEAE, Psychiatric disorders, Moderate, % (Part 1, 12.5 mg BID (N = 22))
(18.2) %: On-treatment TEAE, Hyperkalaemia, Mild, % (Part 1, 12.5 mg BID (N = 22)) | On-treatment TEAE, Metabolism and nutrition disorders, Mild, % (Part 1, 12.5 mg BID (N = 22))
(13.0) %: On-treatment TEAE, Infections and infestations, % (Part 1, 12.5 mg QD (N = 23)) | On-treatment TEAE, Infections and infestations, Mild, % (Part 1, 12.5 mg QD (N = 23)) | On-treatment TEAE, Investigations, % (Part 1, 12.5 mg QD (N = 23)) | On-treatment TEAE, Investigations, Mild, % (Part 1, 12.5 mg QD (N = 23)) | On-treatment TEAE, Vascular disorders, % (Part 1, 12.5 mg QD (N = 23))
24 subjects: Subjects with TEAE resulting in dose modification (Part 1)
2 (3.3%): AE requiring dose titration: Hyperkalemia (100 mg QD Pooled, N 60) | AE requiring study drug discontinuation: Hyperkalemia (100 mg QD Pooled, N 60) | AE requiring study drug discontinuation: Hypotension (100 mg QD Pooled, N 60)
3 (6.0%): AE requiring study drug discontinuation: Other unrelated (Part 1 100 mg QD, N 29)
4.5%: Subjects with any On-treatment TEAEs leading to withdrawal from study drug, % (Part 1, 12.5 mg BID (N = 22)) | TEAE leading to permanent discontinuation from study drug, Orthostatic hypotension, % (Part 1, 12.5 mg BID (N = 22)) | TEAE leading to permanent discontinuation from study drug, Vascular disorders, % (Part 1, 12.5 mg BID (N = 22))
1 (1.7%): AE requiring dose titration: Hyponatremia (100 mg QD Pooled, N 60) | AE requiring study drug discontinuation: Hyponatremia (100 mg QD Pooled, N 60) | AE requiring study drug discontinuation: Other possibly related (100 mg QD Pooled, N 60)
4 (6.7%): AE requiring study drug discontinuation: Other unrelated (100 mg QD Pooled, N 60)
2 (6.9%): AE requiring study drug discontinuation: Hyperkalemia (Part 1 100 mg QD, N 29)
(36.4) %: Subjects with any On-treatment TEAEs, Mild, % (Part 1, 12.5 mg BID (N = 22))
(22.7) %: On-treatment TEAE, Hyperkalaemia, % (Part 1, 12.5 mg BID (N = 22)) | On-treatment TEAE, Investigations, Mild, % (Part 1, 12.5 mg BID (N = 22)) | On-treatment TEAE, Metabolism and nutrition disorders, % (Part 1, 12.5 mg BID (N = 22)) | Subjects with any On-treatment TEAEs, Moderate, % (Part 1, 12.5 mg BID (N = 22))
(9.1) %: On-treatment TEAE, Cortisol decreased, % (Part 1, 12.5 mg BID (N = 22)) | On-treatment TEAE, Cortisol decreased, Mild, % (Part 1, 12.5 mg BID (N = 22)) | On-treatment TEAE, General disorders and administration site conditions, % (Part 1, 12.5 mg BID (N = 22)) | On-treatment TEAE, Vascular disorders, % (Part 1, 12.5 mg BID (N = 22)) | On-treatment TEAE, Vascular disorders, Mild, % (Part 1, 12.5 mg BID (N = 22))
(17.4) %: On-treatment TEAE, Hyperkalaemia, Mild, % (Part 1, 12.5 mg QD (N = 23)) | On-treatment TEAE, Metabolism and nutrition disorders, Mild, % (Part 1, 12.5 mg QD (N = 23))
(13.6) %: On-treatment TEAE, Glomerular filtration rate decreased, % (Part 1, 12.5 mg BID (N = 22)) | On-treatment TEAE, Glomerular filtration rate decreased, Mild, % (Part 1, 12.5 mg BID (N = 22))
(8.7) %: On-treatment TEAE, Cardiac disorders, % (Part 1, 12.5 mg QD (N = 23)) | On-treatment TEAE, Gastrointestinal disorders, % (Part 1, 12.5 mg QD (N = 23)) | On-treatment TEAE, Hypertension, % (Part 1, 12.5 mg QD (N = 23)) | On-treatment TEAE, Nervous system disorders, % (Part 1, 12.5 mg QD (N = 23)) | On-treatment TEAE, Nervous system disorders, Mild, % (Part 1, 12.5 mg QD (N = 23)) | On-treatment TEAE, Orthostatic hypotension, % (Part 1, 12.5 mg QD (N = 23)) | On-treatment TEAE, Orthostatic hypotension, Mild, % (Part 1, 12.5 mg QD (N = 23))
1 (3.4%): AE requiring dose titration: Hyperkalemia (Part 1 100 mg QD, N 29) | AE requiring study drug discontinuation: Hypotension (Part 1 100 mg QD, N 29) | AE requiring study drug discontinuation: Other possibly related (Part 1 100 mg QD, N 29)
(27.3) %: On-treatment TEAE, Investigations, % (Part 1, 12.5 mg BID (N = 22))
(26.1) %: On-treatment TEAE, Hyperkalaemia, % (Part 1, 12.5 mg QD (N = 23)) | On-treatment TEAE, Metabolism and nutrition disorders, % (Part 1, 12.5 mg QD (N = 23))
No serious adverse events: Serious adverse events (SAEs) related to the study medication (Example 1 analysis, whole trial)
0: AE requiring dose titration: Other possibly related (100 mg QD Pooled, N 60) | AE requiring dose titration: Other unrelated (100 mg QD Pooled, N 60) | AE requiring dose titration: Hyponatremia (Part 1 100 mg QD, N 29) | AE requiring dose titration: Other possibly related (Part 1 100 mg QD, N 29) | AE requiring dose titration: Other unrelated (Part 1 100 mg QD, N 29) | AE requiring study drug discontinuation: Hyponatremia (Part 1 100 mg QD, N 29)
(4.3) %: On-treatment TEAE, Dizziness, % (Part 1, 12.5 mg QD (N = 23)) | On-treatment TEAE, Gastrointestinal disorders, Mild, % (Part 1, 12.5 mg QD (N = 23)) | On-treatment TEAE, General disorders and administration site conditions, % (Part 1, 12.5 mg QD (N = 23)) | On-treatment TEAE, Glomerular filtration rate decreased, % (Part 1, 12.5 mg QD (N = 23)) | On-treatment TEAE, Glomerular filtration rate decreased, Mild, % (Part 1, 12.5 mg QD (N = 23)) | On-treatment TEAE, Hyperkalaemia, Moderate, % (Part 1, 12.5 mg QD (N = 23)) | On-treatment TEAE, Hyperkalaemia, Severe, % (Part 1, 12.5 mg QD (N = 23)) | On-treatment TEAE, Hypertension, Moderate, % (Part 1, 12.5 mg QD (N = 23)) | On-treatment TEAE, Metabolism and nutrition disorders, Moderate, % (Part 1, 12.5 mg QD (N = 23)) | On-treatment TEAE, Urinary tract infection, % (Part 1, 12.5 mg QD (N = 23)) | On-treatment TEAE, Urinary tract infection, Mild, % (Part 1, 12.5 mg QD (N = 23))
